Measured values as given in the NIST ThermoML archive (doi:10.1021/je049633+).
Numbers after ± are expanded uncertainties.

Experiment: xn = mol fraction of the nth substance listed
Details: Gas, isochoric method

[N-]=[N+]=O [nitrous oxide] + O=C=O
Details	molar volume [m3/mol]
238.1 K, 1004.5 kPa, x2 = 0.5959	0.001705 ± 3e-06
238.1 K, 1194.6 kPa, x2 = 0.6953	0.001286 ± 3e-06
243.07 K, 1032.4 kPa, x2 = 0.5959	0.001705 ± 3e-06
243.09 K, 1317 kPa, x2 = 0.6953	0.001286 ± 3e-06
248.05 K, 1059.7 kPa, x2 = 0.5959	0.001706 ± 3e-06
248.11 K, 1355.8 kPa, x2 = 0.6953	0.001286 ± 3e-06
253.04 K, 1086.8 kPa, x2 = 0.5959	0.001706 ± 3e-06
253.1 K, 1393.5 kPa, x2 = 0.6953	0.001287 ± 3e-06
258.09 K, 2081.3 kPa, x2 = 0.1499	0.000805 ± 2e-06
258.11 K, 1431.2 kPa, x2 = 0.6953	0.001287 ± 3e-06
263.02 K, 2626.7 kPa, x2 = 0.9071	0.000638 ± 1e-06
263.06 K, 2148.3 kPa, x2 = 0.1499	0.000805 ± 2e-06
263.08 K, 1140.7 kPa, x2 = 0.5959	0.001707 ± 3e-06
263.08 K, 1469 kPa, x2 = 0.6953	0.001287 ± 3e-06
263.09 K, 2245.7 kPa, x2 = 0.2607	0.000759 ± 2e-06
263.1 K, 2436.3 kPa, x2 = 0.4754	0.000668 ± 1e-06
268.02 K, 2719.9 kPa, x2 = 0.9071	0.000635 ± 1e-06
268.03 K, 2212.6 kPa, x2 = 0.1499	0.000806 ± 2e-06
268.04 K, 1168.2 kPa, x2 = 0.5959	0.001707 ± 3e-06
268.05 K, 1505.5 kPa, x2 = 0.6953	0.001287 ± 3e-06
268.08 K, 2515.8 kPa, x2 = 0.4754	0.000669 ± 1e-06
268.08 K, 2813.7 kPa, x2 = 0.3585	0.000579 ± 1e-06
268.08 K, 2907.1 kPa, x2 = 0.7478	0.000559 ± 1e-06
272.93 K, 1194.4 kPa, x2 = 0.5959	0.001708 ± 3e-06
272.93 K, 3330.4 kPa, x2 = 0.6929	0.000486 ± 1e-06
272.94 K, 1541.4 kPa, x2 = 0.6953	0.001288 ± 3e-06
272.95 K, 2909.1 kPa, x2 = 0.3585	0.00058 ± 1e-06
272.98 K, 3090.5 kPa, x2 = 0.0902	0.000512 ± 1e-06
273.04 K, 2808.9 kPa, x2 = 0.9071	0.000636 ± 1e-06
273.05 K, 2384.1 kPa, x2 = 0.2607	0.000759 ± 2e-06
273.06 K, 3007.9 kPa, x2 = 0.7478	0.000559 ± 1e-06
273.07 K, 2593.6 kPa, x2 = 0.4754	0.000669 ± 1e-06
273.12 K, 2276.8 kPa, x2 = 0.1499	0.000806 ± 2e-06
277.82 K, 3196.6 kPa, x2 = 0.0902	0.000513 ± 1e-06
277.86 K, 3791 kPa, x2 = 0.6099	0.000401 ± 1e-06
277.87 K, 3104 kPa, x2 = 0.7478	0.000559 ± 1e-06
277.94 K, 3453.5 kPa, x2 = 0.6929	0.000486 ± 1e-06
282.66 K, 3300.1 kPa, x2 = 0.0902	0.000513 ± 1e-06
282.82 K, 2743.7 kPa, x2 = 0.4754	0.000669 ± 1e-06
282.82 K, 3939.5 kPa, x2 = 0.6099	0.000401 ± 1e-06
282.83 K, 1245.4 kPa, x2 = 0.5959	0.001708 ± 3e-06
282.83 K, 1612.9 kPa, x2 = 0.6953	0.001288 ± 3e-06
282.83 K, 4250.2 kPa, x2 = 0.8378	0.00036 ± 1e-06
282.84 K, 3094.9 kPa, x2 = 0.3585	0.00058 ± 1e-06
282.9 K, 2980 kPa, x2 = 0.9071	0.000636 ± 1e-06
283.01 K, 2401.3 kPa, x2 = 0.1499	0.000806 ± 2e-06
283.01 K, 2518.2 kPa, x2 = 0.2607	0.000759 ± 2e-06
283.01 K, 3203.9 kPa, x2 = 0.7478	0.00056 ± 1e-06
283.01 K, 3574.6 kPa, x2 = 0.6929	0.000486 ± 1e-06
292.79 K, 3511.2 kPa, x2 = 0.0902	0.000513 ± 1e-06
292.89 K, 4229.6 kPa, x2 = 0.6099	0.000401 ± 1e-06
292.97 K, 1685.2 kPa, x2 = 0.6953	0.001289 ± 3e-06
292.97 K, 2524.4 kPa, x2 = 0.1499	0.000806 ± 2e-06
292.98 K, 1297.8 kPa, x2 = 0.5959	0.001709 ± 3e-06
292.98 K, 3279.6 kPa, x2 = 0.3585	0.00058 ± 1e-06
292.99 K, 3397 kPa, x2 = 0.7478	0.00056 ± 1e-06
292.99 K, 4597 kPa, x2 = 0.8378	0.00036 ± 1e-06
293.06 K, 2897.6 kPa, x2 = 0.4754	0.000669 ± 1e-06
293.06 K, 3153.2 kPa, x2 = 0.9071	0.000636 ± 1e-06
293.06 K, 3809.7 kPa, x2 = 0.6929	0.000486 ± 1e-06
293.11 K, 2651.8 kPa, x2 = 0.2607	0.00076 ± 2e-06
297.92 K, 4370.8 kPa, x2 = 0.6099	0.000401 ± 1e-06
298.04 K, 1323.7 kPa, x2 = 0.5959	0.001709 ± 3e-06
298.04 K, 2970.8 kPa, x2 = 0.4754	0.000669 ± 1e-06
298.04 K, 3235.8 kPa, x2 = 0.9071	0.000636 ± 1e-06
298.04 K, 3923.4 kPa, x2 = 0.6929	0.000486 ± 1e-06
298.05 K, 3617.5 kPa, x2 = 0.0902	0.000513 ± 1e-06
298.06 K, 3490.8 kPa, x2 = 0.7478	0.00056 ± 1e-06
299.02 K, 4795.1 kPa, x2 = 0.8378	0.00036 ± 1e-06
302.04 K, 2647.7 kPa, x2 = 0.1499	0.000807 ± 2e-06
303.02 K, 3458.7 kPa, x2 = 0.3585	0.00058 ± 1e-06
303.13 K, 2781.5 kPa, x2 = 0.2607	0.00076 ± 2e-06
307.87 K, 4646.1 kPa, x2 = 0.6099	0.000401 ± 1e-06
307.97 K, 3546.3 kPa, x2 = 0.3585	0.00058 ± 1e-06
308 K, 1375.9 kPa, x2 = 0.5959	0.00171 ± 3e-06
308 K, 1790.6 kPa, x2 = 0.6953	0.00129 ± 3e-06
308 K, 4148.1 kPa, x2 = 0.6929	0.000486 ± 1e-06
308.01 K, 3399.4 kPa, x2 = 0.9071	0.000637 ± 1e-06
308.02 K, 3818.3 kPa, x2 = 0.0902	0.000513 ± 1e-06
308.03 K, 3676.1 kPa, x2 = 0.7478	0.00056 ± 1e-06
308.07 K, 2845 kPa, x2 = 0.2607	0.00076 ± 2e-06
308.09 K, 5087.6 kPa, x2 = 0.8378	0.00036 ± 1e-06
308.13 K, 3117.6 kPa, x2 = 0.4754	0.00067 ± 1e-06
312.22 K, 2766.9 kPa, x2 = 0.1499	0.000807 ± 2e-06
317.84 K, 4915.4 kPa, x2 = 0.6099	0.000401 ± 1e-06
318.01 K, 2971.6 kPa, x2 = 0.2607	0.000761 ± 2e-06
318.02 K, 5401.8 kPa, x2 = 0.8378	0.000361 ± 1e-06
318.04 K, 3722.1 kPa, x2 = 0.3585	0.000581 ± 1e-06
318.05 K, 4013.5 kPa, x2 = 0.0902	0.000513 ± 1e-06
318.11 K, 1427.6 kPa, x2 = 0.5959	0.001711 ± 3e-06
318.11 K, 3261.7 kPa, x2 = 0.4754	0.00067 ± 1e-06
318.12 K, 1861.3 kPa, x2 = 0.6953	0.00129 ± 3e-06
318.12 K, 3563 kPa, x2 = 0.9071	0.000637 ± 1e-06
318.12 K, 4371.8 kPa, x2 = 0.6929	0.000486 ± 1e-06
318.13 K, 3860.5 kPa, x2 = 0.7478	0.00056 ± 1e-06
322.91 K, 5554.6 kPa, x2 = 0.8378	0.000361 ± 1e-06
323.11 K, 2885.7 kPa, x2 = 0.1499	0.000807 ± 2e-06
323.12 K, 5055.4 kPa, x2 = 0.6099	0.000401 ± 1e-06
327.94 K, 3893.1 kPa, x2 = 0.3585	0.000581 ± 1e-06
327.98 K, 3097.5 kPa, x2 = 0.2607	0.000761 ± 2e-06
328 K, 5712 kPa, x2 = 0.8378	0.000361 ± 1e-06
328.09 K, 1478.4 kPa, x2 = 0.5959	0.001712 ± 3e-06
328.09 K, 3404 kPa, x2 = 0.4754	0.00067 ± 1e-06
328.1 K, 1930.7 kPa, x2 = 0.6953	0.001291 ± 3e-06
328.1 K, 3722.5 kPa, x2 = 0.9071	0.000637 ± 1e-06
328.1 K, 4040.6 kPa, x2 = 0.7478	0.000561 ± 1e-06
328.1 K, 4589.4 kPa, x2 = 0.6929	0.000487 ± 1e-06
328.11 K, 4212.5 kPa, x2 = 0.0902	0.000514 ± 1e-06
328.11 K, 5188.2 kPa, x2 = 0.6099	0.000402 ± 1e-06
333.09 K, 3003.3 kPa, x2 = 0.1499	0.000808 ± 2e-06
333.1 K, 5868.1 kPa, x2 = 0.8378	0.000361 ± 1e-06
338.03 K, 4402.1 kPa, x2 = 0.0902	0.000514 ± 1e-06
338.07 K, 1529 kPa, x2 = 0.5959	0.001712 ± 3e-06
338.07 K, 4218.4 kPa, x2 = 0.7478	0.000561 ± 1e-06
338.07 K, 4804.3 kPa, x2 = 0.6929	0.000487 ± 1e-06
338.08 K, 1999.6 kPa, x2 = 0.6953	0.001291 ± 3e-06
338.08 K, 3880.7 kPa, x2 = 0.9071	0.000637 ± 1e-06
338.08 K, 4065.8 kPa, x2 = 0.3585	0.000581 ± 1e-06
338.09 K, 3223.8 kPa, x2 = 0.2607	0.000761 ± 2e-06
338.09 K, 5449.4 kPa, x2 = 0.6099	0.000402 ± 1e-06
338.11 K, 3545.6 kPa, x2 = 0.4754	0.000671 ± 1e-06
343.08 K, 3119.8 kPa, x2 = 0.1499	0.000808 ± 2e-06
343.08 K, 5578.9 kPa, x2 = 0.6099	0.000402 ± 1e-06
348.02 K, 4592.8 kPa, x2 = 0.0902	0.000514 ± 1e-06
348.05 K, 3346.9 kPa, x2 = 0.2607	0.000762 ± 2e-06
348.05 K, 3684.7 kPa, x2 = 0.4754	0.000671 ± 1e-06
348.06 K, 1579.5 kPa, x2 = 0.5959	0.001713 ± 3e-06
348.06 K, 2068.1 kPa, x2 = 0.6953	0.001292 ± 3e-06
348.06 K, 4036.9 kPa, x2 = 0.9071	0.000638 ± 1e-06
348.06 K, 4394.9 kPa, x2 = 0.7478	0.000561 ± 1e-06
348.06 K, 5017.1 kPa, x2 = 0.6929	0.000487 ± 1e-06
348.07 K, 4234.7 kPa, x2 = 0.3585	0.000582 ± 1e-06
353.04 K, 3235.1 kPa, x2 = 0.1499	0.000809 ± 2e-06
357.91 K, 4567 kPa, x2 = 0.7478	0.000561 ± 1e-06
357.95 K, 2135.6 kPa, x2 = 0.6953	0.001293 ± 3e-06
357.99 K, 1629.5 kPa, x2 = 0.5959	0.001714 ± 4e-06
357.99 K, 5226.8 kPa, x2 = 0.6929	0.000487 ± 1e-06
358.02 K, 3469.7 kPa, x2 = 0.2607	0.000762 ± 2e-06
358.02 K, 3823.2 kPa, x2 = 0.4754	0.000671 ± 1e-06
358.03 K, 4191.9 kPa, x2 = 0.9071	0.000638 ± 1e-06
358.04 K, 3292.6 kPa, x2 = 0.1499	0.000809 ± 2e-06
358.04 K, 4401.6 kPa, x2 = 0.3585	0.000582 ± 1e-06
